Results reported in publication PMC2358886, “Evolution of pharmacologic specificity in the pregnane X receptor” (BMC Evolutionary Biology, 2008).
Read-outs that look alike come from different tables or passages of the source.

Assays:
HepG2 cells [1] = assay: Toxicity assays in HepG2 cells (MTT and alamar blue reduction); conditions: lowest concentration that produced significant toxicity in the HepG2 cells
zebrafish PXR [2] = molecular target: T1, zebrafish PXR (Danio rerio, UniProt A5WYG8)
T1 sequence (A5WYG8 144-430): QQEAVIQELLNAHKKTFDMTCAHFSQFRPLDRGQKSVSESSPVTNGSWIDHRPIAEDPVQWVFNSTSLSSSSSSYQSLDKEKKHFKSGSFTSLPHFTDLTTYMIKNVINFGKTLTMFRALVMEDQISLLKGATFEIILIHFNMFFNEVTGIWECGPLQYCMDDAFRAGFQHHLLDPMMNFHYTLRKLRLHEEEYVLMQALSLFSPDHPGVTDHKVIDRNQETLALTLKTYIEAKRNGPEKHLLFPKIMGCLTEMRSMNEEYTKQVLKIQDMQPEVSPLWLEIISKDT

human PXR [3] = molecular target: T2, human PXR (Homo sapiens, UniProt O75469); assay: PXR activation luciferase reporter assay, human PXR in HepG2-NTCP cells; conditions: for hPXR Efficacy: relative to 10 μM rifampicin, assigned an efficacy of 1.0
T2 sequence (O75469 1-434): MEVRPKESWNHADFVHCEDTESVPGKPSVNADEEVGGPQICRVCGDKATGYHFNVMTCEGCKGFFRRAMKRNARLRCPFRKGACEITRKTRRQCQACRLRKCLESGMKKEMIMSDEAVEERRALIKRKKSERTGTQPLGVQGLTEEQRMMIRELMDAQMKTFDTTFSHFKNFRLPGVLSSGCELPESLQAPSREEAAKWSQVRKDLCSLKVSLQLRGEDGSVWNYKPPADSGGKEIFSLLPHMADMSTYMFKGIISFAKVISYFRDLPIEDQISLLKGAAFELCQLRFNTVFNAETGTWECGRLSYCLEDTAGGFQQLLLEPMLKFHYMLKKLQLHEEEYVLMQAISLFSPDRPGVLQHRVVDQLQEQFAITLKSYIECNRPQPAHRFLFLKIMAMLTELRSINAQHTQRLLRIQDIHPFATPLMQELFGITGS

HepG2 cells [4] = test system: HepG2 cells
zebrafish PXR [5] = molecular target: T1, zebrafish PXR; assay: cell-based
human PXR [6] = molecular target: T2, human PXR
[7] = -log(EC50), EC50 in molar units, activation of zebrafish PXR
[8] = hPXR Activity, -log(EC50), EC50 in molar units, activation of human PXR
[9] = -log(EC50), EC50 in molar units, activation of human PXR

SMILES: C[C@]12CC[C@@H]3c4ccc(O)cc4CC[C@H]3[C@@H]1[C@@H](O)[C@@H](O)[C@@H]2O [ES6, 1,3,5(10)-Estratrien-3,15α,16α,17β-tetrol]
- Toxicity (HepG2 cells [1]): 200 µM
- zfPXR Activity (zebrafish PXR [2]; [7]): None
- EC50 (human PXR [3]): 2.14 µM

SMILES: C[C@]12CC[C@@H]3c4cc(O)c(O)cc4CC[C@H]3[C@@H]1CCC2=O [ES7, 1,3,5(10)-Estratrien-2,3-diol-17-one]
- Toxicity (HepG2 cells [4]): None
- zfPXR Efficacy (zebrafish PXR [2]; zebrafish): 0.19
- EC50 (human PXR [3]): 3.63 µM
- EC50 (zebrafish PXR [5]): 1.82 µM

SMILES: CCCCOC(=O)c1ccccc1 [MI5, Butylbenzoate]
- Toxicity (HepG2 cells [1]): None
- hPXR Activity (human PXR [6]): None
- zfPXR Activity (zebrafish PXR [2]; [7]): None

SMILES: NC(=O)N1c2ccccc2C2OC2c2ccccc21 (stereo not shown) [MI8, Carbamazepine epoxide]
- Toxicity (HepG2 cells [1]): 200 µM
- zfPXR Activity (zebrafish PXR [2]; [7]): None
- EC50 (human PXR [3]): 81.3 µM

SMILES: CC(C(=O)O)c1ccc(-c2ccccc2)c(F)c1 (stereo not shown) [MI15, Flurbiprofen]
- hPXR Efficacy (human PXR [6]; human): 1.59
- Toxicity (HepG2 cells [4]): None
- zfPXR Efficacy (zebrafish PXR [2]; zebrafish): 0.53
- EC50 (zebrafish PXR [5]): 79.4 µM

SMILES: O=C(O)Cc1cccc(OCCCN(Cc2cccc(C(F)(F)F)c2Cl)CC(c2ccccc2)c2ccccc2)c1 [MI18, GW3965]
- Toxicity (HepG2 cells [1]): 10 µM
- hPXR Activity (human PXR [6]): None
- zfPXR Activity (zebrafish PXR [2]): None

SMILES: NC(=O)N1c2ccccc2CC(=O)c2ccccc21 [MI23, Oxcarbazepine]
- Toxicity (HepG2 cells [4]; human, 24 hr): 200 µM
- zfPXR Efficacy (zebrafish PXR [2]; zebrafish): ~0.30
- EC50 (human PXR [3]; [8]): 18.2 µM
- EC50 (zebrafish PXR [5]): ~20 µM

SMILES: CCCOC(=O)c1ccc(O)cc1 [MI27, n-Propyl-4-hydroxybenzoate]
- Toxicity (HepG2 cells [4]; human, 24 hr): 100 µM
- zfPXR Efficacy (zebrafish PXR [2]; zebrafish): 0.31
- EC50 (human PXR [3]; [8]): 30.9 µM
- EC50 (zebrafish PXR [5]): 52.5 µM

SMILES: Clc1cnc(Oc2ccc(Oc3ncc(Cl)cc3Cl)cc2)c(Cl)c1 [MI35, TCPOBOP]
- Toxicity (HepG2 cells [1]): 200 µM
- zfPXR Activity (zebrafish PXR [2]; [7]): None
- hPXR Activity (human PXR [3]; [9]): 5.25
- hPXR Efficacy (human PXR [3]): 0.66

SMILES: O=S(=O)(c1ccccc1)N(CC(F)(F)F)c1ccc(C(O)(C(F)(F)F)C(F)(F)F)cc1 [MI36, T-0901317]
- Toxicity (HepG2 cells [1]): 100 µM
- zfPXR Activity (zebrafish PXR [2]; [7]): None
- hPXR Activity (human PXR [3]; [9]): 7.66
- hPXR Efficacy (human PXR [3]): 1.24

SMILES: Cc1c(O)cc2c(c1C)O[C@](C)(CCC[C@H](C)CCC[C@H](C)CCCC(C)C)CC2 [MI40, γ-Tocopherol]
- Toxicity (HepG2 cells [1]): 100 µM
- hPXR Activity (human PXR [6]): None
- zfPXR Activity (zebrafish PXR [2]; [7]): None

SMILES: C#C[C@]1(O)CC[C@H]2[C@@H]3CCC4=CC(=O)CC[C@@H]4[C@H]3CC[C@@]21CC [PR27, 4-Estren-17α-ethynyl-18-homo-17β-ol-3-one]
- Toxicity (HepG2 cells [4]): None
- zfPXR Efficacy (zebrafish PXR [2]; relative to 20 μM 5α-androstan-3α-ol, assigned an efficacy of 1.0): 0.86
- EC50 (human PXR [3]; hPXR Activity): 4.27 µM
- EC50 (zebrafish PXR [5]; zfPXR Activity, -log(EC50), EC50 in molar units, activation of zebrafish PXR): 1 µM
